± gives the expanded uncertainty stated by the source.
Columns and labels:
[1] = refractive index (Na D-line) (dimensionless); settings: 298.15 K; 101.33 kPa; Liquid; Standard Abbe refractometry
[2] = 298.15 K; 101.33 kPa; Liquid

Row | refractive index [1] | mass density [2] [kg/m3] | SMILES
1 | 1.35941 ± 0.00068 | – | CCO [ethanol]
2 | – | 786.46 ± 0.26 | CO [methanol]

Reference: the NIST ThermoML archive (doi:10.1021/je0602521)
